The source of these data is ChEMBL document CHEMBL1156829 (Proc Natl Acad Sci U S A, 2008).

Series [1] in a line: NOVARTIS: Cytotoxicity against human hepatocellular carcinoma cell line (Huh7). The conditions noted are these: Huh7 cells (hepatocellular carcinoma cell line). Format: toxicity, cell-based, Huh-7.
For series [2], the system named is Plasmodium falciparum. Put plainly: NOVARTIS: Inhibition of Plasmodium falciparum 3D7 (drug-susceptible) proliferation in erythrocyte-based infection assay. Format: functional, organism-based. The conditions noted are these: Plasmodium falciparum, 3D7.
Series [3] has as its system Plasmodium falciparum. Put plainly: NOVARTIS: Inhibition of Plasmodium falciparum W2 (drug-resistant) proliferation in erythrocyte-based infection assay. Format: functional, organism-based. The conditions noted are these: Plasmodium falciparum, W2; read-out: EC50.

pEC50: −log10 of the molar value. A value given as a limit tells only on which side of the number the result lay.

On to `CCCCOc1ccc(N2C(N)=NC(N)=NC2(C)C)cc1`, for which the CC50 in series [1] was over 10000 nM. The pEC50 in the series with Plasmodium falciparum [2] is 6.81; in the series on Plasmodium falciparum [3], under 5.90.
For `OC1(c2ccc3ccccc3c2)c2c(c3ccccc3c3ccccc23)C2=NCCN21` (configuration not stated) the same measures were over 10000 nM, 6.60 and 6.55.
For `CCOC(=O)c1cccc(N2C(N)=NC(N)=NC2(C)C)c1` the same measures were over 10000 nM, 6.83 and under 5.90.
For `COc1cccc(NC(=O)c2ccc(NCCCN3CCC(C)CC3)c([N+](=O)[O-])c2)c1` the same measures were 18700 nM, 6.53 and 6.28.
`C=C(C[N+](C)(C)C)c1ccc([N+](=O)[O-])cc1` showed a CC50 in series [1] of over 10000 nM. The pEC50 in the series with Plasmodium falciparum [2] was 6.50; in the series on Plasmodium falciparum [3], 6.55.
On the same counts, the results for `CN(C)CCNC(=O)c1ccc(-c2cncc(NCc3ccc(Cl)c(Cl)c3)c2)cc1` are 10300 nM, 6.19 and 6.55.
On the same counts, the results for `OC(CN1CCN(C2c3ccccc3-c3ccccc32)CC1)Cn1c2ccc(Cl)cc2c2cc(Cl)ccc21` (configuration not stated) are over 10000 nM, 5.92 and 6.56.
`COc1cc(C=C2CCC(=Cc3cc(OC)c(OC)c(OC)c3)C2=O)cc(OC)c1OC` came in with a CC50 in series [1] of over 100000 nM. Moreover, the pEC50 is 5.66 in the series on Plasmodium falciparum [2] and 5.56 in the series with Plasmodium falciparum [3].
For `Cc1cc(C)c(CSc2ncnc3[nH]cnc23)c(C)c1` the same measures were over 10000 nM, under 5.82 and under 6.56.
On the same counts, the results for `CCN1CCN(c2cc(C)c3cc(NC(=O)C=Cc4ccc(OC)cc4)ccc3n2)CC1` are over 100000 nM, 5.70 and 5.56.
On the same counts, the results for `CCN(CC)CCCNC(=S)N(Cc1cc2ccc(OC)cc2[nH]c1=O)C1CCCCC1` are 40800 nM, 5.39 and 5.95.
`CC1CCC(C(C)(C)Oc2ccc(NC(=O)c3ccccc3)cc2)CC1` (configuration not stated) gave a CC50 in series [1] of 42800 nM. For the same compound, the pEC50 was 5.40 with Plasmodium falciparum [2] and 5.93 in the series with Plasmodium falciparum [3].
For `CC1=C(C(=O)OC2CCCCC2)C(c2ccc(F)c(F)c2)C2=C(CCCC2=O)N1` (configuration not stated) the same measures were over 100000 nM, 5.21 and 5.56.
On to `CCN(CC)S(=O)(=O)c1cc(S(=O)(=O)c2ccc(Cl)c(S(=O)(=O)N(CC)CC)c2)ccc1Cl`, for which the CC50 in series [1] was over 10000 nM. For the same compound, the pEC50 in the series on Plasmodium falciparum [2] was under 6.03; with Plasmodium falciparum [3], under 6.56.
For `O=C(Nc1ccc(Oc2ccc(OC(F)(F)F)cc2)cc1)C1CC1` the same measures were over 100000 nM, 5.78 and 5.56.
For the compound `Cc1cc(N2CCN(c3ccccn3)CC2)n2c(nc3ccccc32)c1C#N`, the CC50 in series [1] was over 100000 nM. Also, the figures for the pEC50 with Plasmodium falciparum [2] and in the series with Plasmodium falciparum [3] were 5.85 and 5.56, respectively.
For the compound `O=C(NC(CN1CCCC1)c1ccccc1)C1CCCCN1S(=O)(=O)c1ccc(Cl)cc1` (configuration not stated), the CC50 in series [1] turned out to be 18600 nM. The values for the pEC50 in the series with Plasmodium falciparum [2] and in the series on Plasmodium falciparum [3] were 6.72 and 6.29, respectively.
`CCCCCCCSc1c(O)c2ccc(Cl)cc2[nH]c1=O` yielded a CC50 in series [1] of over 10000 nM. In addition, the figures for the pEC50 in the series on Plasmodium falciparum [2] and in the series on Plasmodium falciparum [3] were 6.91 and 6.57, respectively.
On the same counts, the results for `NCCC(=O)N1CC(c2ccccc2)c2ccccc2C1CN1CCCCC1` (configuration not stated) are 8520 nM, 6.47 and 6.64.
On the same counts, the results for `Cc1ccc(C(CCNc2ncnc3c2[nH]c2ccccc23)c2ccco2)cc1` (configuration not stated) are 19400 nM, 6.13 and 6.28.
In series [1], `CC(=O)Nc1ccc2c(c1)C(=O)N(C(C(=O)NCC(=O)O)C1CC1)[C@@H](CCC(=O)O)C(=O)N2` (some centres not stated) gave a CC50 of over 10000 nM. The pEC50 was 5.90 in the series on Plasmodium falciparum [2] and 6.55 in the series with Plasmodium falciparum [3].
For `CC1CC(=O)NN=C1c1ccc(NC(=O)c2ccccc2)cc1` (configuration not stated) the same measures were over 10000 nM, 6.52 and 6.57.
`CCCOC(=O)C1=C(C)NC2=C(C(=O)CCC2)C1c1cc(Br)c(O)c(OCC)c1` (configuration not stated) yielded a CC50 in series [1] of over 100000 nM. The figures for the pEC50 in the series with Plasmodium falciparum [2] and in the series with Plasmodium falciparum [3] were under 4.90 and 5.55, respectively.
In series [1], `Cn1c(SCc2cccc([N+](=O)[O-])c2)nc2c(c1=O)SCC2` displayed a CC50 of over 100000 nM. In addition, the pEC50 with Plasmodium falciparum [2] is 5.48; with Plasmodium falciparum [3], 5.55.
On the same counts, the results for `CCN1CCN(C(=O)Nc2ccc(Cc3ccc(NC(=O)N4CCN(CC)CC4)cc3)cc2)CC1` are 62000 nM, 5.62 and 5.76.
In the case of `Nc1cccc(Oc2ccc3c(c2)C(=O)N(c2cccc(C(=O)O)c2)C3=O)c1`, the CC50 in series [1] is over 10000 nM. In addition, the pEC50 is under 5.90 in the series with Plasmodium falciparum [2] and under 6.56 with Plasmodium falciparum [3].
The compound `O=C(Nc1ccc(NC(=O)Nc2ccc(C3=NCCN3)cc2)cc1)Nc1ccc(C2=NCCN2)cc1` had a CC50 in series [1] of over 10000 nM. For the same compound, the pEC50 in the series with Plasmodium falciparum [2] was 6.52; in the series with Plasmodium falciparum [3], 6.56.
For `CCN1c2ccccc2N=C2C=CC(N)=CC21` (configuration not stated) the same measures were over 10000 nM, 7.22 and 6.56.
On the same counts, the results for `COC(=O)C1CCCN1S(=O)(=O)c1ccc2ccccc2c1` (configuration not stated) are over 100000 nM, under 5.31 and 5.55.
On the same counts, the results for `COc1ccc(OC(C)=O)c(C=NNC(=O)C(C)Oc2ccccc2Br)c1` (configuration not stated) are over 100000 nM, 5.29 and 5.55.
Take `CN1CCc2c(sc3nc(SCC(=O)NCCc4ccccc4)n(-c4ccc(Cl)cc4)c(=O)c23)C1`: the CC50 in series [1] came out at 68500 nM. Besides, the pEC50 in the series on Plasmodium falciparum [2] is 5.88; in the series on Plasmodium falciparum [3], 5.72.
On the same counts, the results for `FC(F)(F)COc1nc(N2CCCCC2)nc(N(c2ccccc2)c2ccccc2)n1` are over 100000 nM, under 5.22 and 5.56.
For `Cc1cccc(-c2nc3cc(NC(=O)c4ccc([N+](=O)[O-])o4)ccc3o2)c1` the same measures were over 100000 nM, 5.76 and under 4.90.
In series [1], `Cc1ccc(CNC(=O)CSc2nc3ccsc3c(=O)n2CCCCCC(=O)NCCc2ccccc2)cc1` displayed a CC50 of over 100000 nM. In addition, the pEC50 with Plasmodium falciparum [2] was 5.35; in the series with Plasmodium falciparum [3] it was 5.57.
`O=C(CN1C(=O)C2C3CCC(C3)C2C1=O)N1CCCC(c2ncncc2-c2ccncc2)C1` (configuration not stated): the CC50 in series [1] is over 10000 nM. In addition, the pEC50 in the series with Plasmodium falciparum [2] was 6.61; in the series on Plasmodium falciparum [3], under 5.90.
The compound `C/C=C(\Cl)C1=CC(=O)[C@]23C[C@H]2[C@@]2(C)CO[C@@]1(O)[C@@]3(O)O2` registered a CC50 in series [1] of over 10000 nM. In addition, the pEC50 in the series with Plasmodium falciparum [2] was 6.69; with Plasmodium falciparum [3] it was under 5.90.
In series [1], `Cc1nc(Cl)cc(N2CCc3c(nc(N4CC(C)OC(C)C4)[nH]c3=O)C2)n1` (configuration not stated) gave a CC50 of over 10000 nM. Moreover, the results for the pEC50 in the series with Plasmodium falciparum [2] and in the series on Plasmodium falciparum [3] were 6.76 and under 5.90, respectively.
On the same counts, the results for `COc1cccc(-c2ccc(O)c(CNC3CCN(Cc4ccccc4)CC3)c2)n1` are 5940 nM, 6.42 and 6.79.
On the same counts, the results for `Cn1nc(C(=O)N2CCc3ccccc3C2)c2c1CCC(N1CCN(Cc3cccc(F)c3)CC1)C2` (configuration not stated) are 8020 nM, 6.32 and 6.66.
`CC(NCCC(c1ccccc1)c1ccccc1O)c1ccccc1` (configuration not stated) registered a CC50 in series [1] of over 10000 nM. For the same compound, the pEC50 with Plasmodium falciparum [2] was 5.95; with Plasmodium falciparum [3] it was 6.56.
On the same counts, the results for `Oc1c2c(nc3cc(-c4ccccc4)nn13)CCCC2` are over 100000 nM, 5.72 and under 4.90.
On the same counts, the results for `O=C(c1ccc([N+](=O)[O-])cc1)c1ccc(N2CCOCC2)c([N+](=O)[O-])c1` are over 100000 nM, 5.38 and 5.56.
`CN(CCCNc1ccnc2cc(Cl)ccc12)C(=O)c1cccc(Cl)c1`: in series [1], the CC50 was 7340 nM. Moreover, the values for the pEC50 in the series with Plasmodium falciparum [2] and in the series with Plasmodium falciparum [3] were 6.57 and 6.70, respectively.
For `COc1ccccc1CN1CCc2nc(N3CCCCC3)sc2C1` the same measures were over 10000 nM, 6.34 and 6.56.
In the case of `CCN1/C(=C/c2ccc3ccccc3[n+]2CC)Sc2sc3ccccc3c21`, the CC50 in series [1] was 4770 nM. For the same compound, the pEC50 in the series on Plasmodium falciparum [2] is 7.00; in the series with Plasmodium falciparum [3], 6.87.
On the same counts, the results for `CC(C)NC(=O)CN(C)C1c2ccccc2CCc2ccccc21` are over 9180 nM, under 5.86 and 6.60.
The compound `CCOc1cccc2c(C)nc(NC(=N)N)nc12` had a CC50 in series [1] of 56500 nM. Also, the pEC50 with Plasmodium falciparum [2] is 6.45; in the series on Plasmodium falciparum [3] it was 5.81.
For the compound `CC(C)[C@@H](CO)Nc1ccnc2c(-c3ccccc3F)cnn12`, in series [1], the CC50 was over 10000 nM. Moreover, the pEC50 was under 5.90 in the series with Plasmodium falciparum [2] and under 6.57 in the series on Plasmodium falciparum [3].
On the same counts, the results for `CC(C)c1ccc(NC(=O)c2ccc(NCCCN3CCN(c4cccc(Cl)c4)CC3)c([N+](=O)[O-])c2)cc1` are over 100000 nM, 5.79 and 5.55.
For `COC(=O)c1cn([C@H]2C[C@@H](C(=O)NCc3ccc(OC)cc3)N(Cc3ccsc3)C2)nn1` the same measures were over 7380 nM, under 5.77 and 6.70.
On the same counts, the results for `CCOc1ccc2nc(NCCNC(=O)c3ccco3)c(C)cc2c1` are over 10000 nM, under 5.90 and under 6.55.
Turning to `Cc1oc2c(cc(NS(=O)(=O)c3ccc(F)cc3)c3ccccc32)c1C(=O)OCc1ccccc1`, the CC50 in series [1] was over 100000 nM. Besides, the pEC50 in the series with Plasmodium falciparum [2] is under 5.84; with Plasmodium falciparum [3], under 4.90.
On the same counts, the results for `O=C(Cc1cccs1)NC1CCN(CC(O)CN(Cc2ccccc2)S(=O)(=O)c2ccccc2)C1` (configuration not stated) are over 10000 nM, 6.74 and under 5.90.
For `CCOC(=O)c1c[nH]c2ccc(C)cc2c1=O` the same measures were over 100000 nM, 5.57 and 5.56.
